# Test results as given in patent US20220217970A1, “Perfusion Regulated Organ Therapeutics with Enhanced Controlled Testing” (priority 2021, published 2022).
# Tests used:
# [1] = test system: split human marginal donor liver (MDL) lobes; experiment: Ki67 and CK-7 immunohistochemistry labeling index of perfused split lobes (Experiment 2)
# Experimental: As a proof of concept, the system 10 was used to test the effect on IRI by deferoxamine (DM), which is a chelator of iron and a ferroptosis regulator. During the testing, one liver lobe was used as an internal control for the treated lobe. Ferroptosis, an iron-dependent form of programmed cell death, has been implicated as a mechanism of pathogenesis in models of liver, kidney, and lung reperfusion injury. […] In the DM Agent Treated (DMAT) lobe, DM was administered to one split liver segment, while the other segment served as the No Agent Internal Control (NAIC) lobe. This experiment was deemed as Experiment 2.
# (§1) DM Dosing: In addition to the liver lobe weight, the volume of the cold preservation solution was measured. […]
# Liver biopsy tissue from each liver segment was fixed in 10% buffered formalin for 24 hours. […] The following describes the specific stains and the methods utilized for quantification.
# Ki67 labeling index: The nuclear antigen Ki67 is expressed in the cell cycle phases G1, S, G2 and M, however not during G0. The percentage of the Ki67 positive nuclei are expressed as a labeling index, which provides an objective cell proliferation index in the tissues. […] All the positive (immunoreactive) hepatic nuclei were calculated and subsequently divided by the total number of cells in 5 non-overlapping high-power fields. […]
# [2] = test system: split human marginal donor liver (MDL) lobes; experiment: Serological liver injury markers during PROTECT normothermic perfusion of split liver lobes (Experiment 2); details: DM infusion 0.6 mmol/L, listed as DMAT
# Text: In order to provide anatomic perfusion, a novel NMP described above and shown in FIGS. 1 and 2 was developed using an extra-corporal membrane oxygenation (ECMO) roller pump (Sorin/Stockert S3) with a modified circuit to provide dual blood supply to the hepatic artery and portal vein. Incorporated into this design was an arterial supply that passes through an oxygenator (Capiox Fx) and was connected to the hepatic artery.
# Portal venous blood supply bypassed the oxygenator, was delivered to a reservoir, and then flowed by gravity into the portal vein. Pressure was regulated by the intrinsic resistance within the liver's arterial and portal venous circulations, combined with the resistance within the two limbs of the circuit and the flow delivered to each. […]
# The circuit was monitored under guidance from a University certified ECMO perfusionist and the hospital ECMO physician team. […]
# During each perfusion run (Table 1), laboratory analysis was carried out at regular intervals. Perfusate pH, pCO2, pO2, bicarbonate levels, and serum electrolytes (Na^+, K^+, Cl^−, ionized Ca^2+) were monitored every hour by automated blood gas analysis of both arterial and portal venous blood samples. […] Serum markers of liver injury, specifically AST, ALT, GGT, and alkaline phosphatase, were monitored hourly. […]
# as §1
smiles,measurement,setting,value
CC(=O)N(O)CCCCCNC(=O)CCC(=O)N(O)CCCCCNC(=O)CCC(=O)N(O)CCCCCN [Deferoxamine],"CK-7 expression (labeling index, bile duct proliferation)","[1]; Experiment 2, DMAT lobe (NAIC 0.30, p=0.29, n=5)",0.26
same,Ki67 index (hepatocellular proliferation),"[1]; conclusion of Experiment 2, DMAT lobe (NAIC 0.38, p=0.16)",0.32
same,ΔALT (change in serum ALT over the course of the experiment),"[2]; Experiment 2, DM Agent Treated lobe vs No Agent Internal Control lobe (ΔALT NAIC 586)",−405
same,ΔAST (change in serum AST over the course of the experiment),"[2]; Experiment 2, DM Agent Treated lobe vs No Agent Internal Control lobe (ΔAST NAIC 617)",−380
